Data reported in patent US8933038B2, “Method of treating cancer with an HLA-A*3303-restricted WT1 peptide and pharmaceutical composition comprising the same” (International Institute of Cancer Immunology, Inc., priority 2006, dated 2015).
Ends that are not written are not given here.

Tests used:
[1] = test system: B-LCL cells pulsed with the same WT1 peptide (BLCL-Ps)
Experimental: Peripheral blood mononuclear cells (PBMCs) were separated by Ficoll-Hypaque gradient density centrifugation method from peripheral blood that had been collected from an HLA-A*3303-positive healthy donor (HLA-A*3303/0207). The PBMCs were then seeded to a 24-well cell culture plate at the density of about 1×10^7 in RPMI 1640 medium containing 10% FCS, and a culture supernatant of B95-8 cells (cells producing EB virus) were added. They were cultured at 37° C. with 5% CO2 for about 1 month. B-LCL cells transformed with EB virus, which are B-cell tumor cells, were obtained. […] B-LCL cells were pulsed by incubating them with 20 μg/ml of WT1337, WT1364, WT1367 or WT1409 for 2 hours, and irradiated with 80 Gy of radiation. The resulting B-LCL cells (hereinafter referred to as B-LCL cells pulsed with a WT1 peptide) were used as antigen-presenting cells for the following experiments.
(§1) 3×10^6 of PBMCs (HLA-A*3303/1101) were cultured in a 24-well cell culture plate in complete medium (450 RPMI, 45% AMI-V medium and 10% human AB serum) containing 20 μg/ml of WT1337, WT1364, WT1367 or WT1409 at 37° C. with 5% CO2 for 1 week to obtain responding cells. 2×10^6 of the resulting responding cells were cocultured with 1×10^6 of the B-LCL cells pulsed with the same WT1 peptide in complete medium for 1 week (first stimulation). The PBMCs were cocultured with the B-LCL cells pulsed with the WT1 peptide three more times (second to fourth stimulations) under the conditions under which 20 IU/ml (final concentration) of IL-2 was added as follows: second stimulation: two times every other day from 3 days after the initiation of stimulation; third and fourth stimulations: three times at intervals of one day from the day after the initiation of stimulation. The resulting cells were concentrated using Negative Selection Columns Gravity Feed Kit (StemSp) so that the ratio of CD8-positive T cells became about 800, and cocultured with the B-LCL cells pulsed with the WT1 peptide (fifth stimulation). […]
(§2) The cytotoxic activity of CTLs was measured using ^51Cr release assay. […] The amounts of ^51Cr released into the supernatants were measured using a liquid scintillation counter. The cytotoxic activity (%) was determined using the following formula: (^51Cr release in supernatant of sample−Spontaneous ^51Cr release)/(Maximum ^51Cr release−Spontaneous ^51Cr release)×100 wherein Spontaneous ^51Cr release is ^51Cr release observed when the target cells into which ^51Cr had been incorporated were cultured alone under the same condition, and Maximum ^51Cr release is ^51Cr release observed when the target cells into which ^51Cr had been incorporated were completely lysed using 1% Triton X-100.

[2] = test system: TF-1 cells
Experimental: as §1, §2
The cytotoxic activity of CTLs induced with WT1364, WT1367 or WT1409 against TF-1 cells that are tumor cells expressing a WT1 gene (HLA-A*3303-positive) was determined using the method as described above. […]

[3] = test system: B-LCL expressing WT1 (B-LCL-WT1)
Experimental: 3×10^6 of PBMCs (HLA-A*3303/1101) were cultured in a 24-well cell culture plate in complete medium (450 RPMI, 45% AMI-V medium and 10% human AB serum) containing 20 μg/ml of WT1337, WT1364, WT1367 or WT1409 at 37° C. with 5% CO2 for 1 week to obtain responding cells. 2×10^6 of the resulting responding cells were cocultured with 1×10^6 of the B-LCL cells pulsed with the same WT1 peptide in complete medium for 1 week (first stimulation). […]
as §2
The cytotoxic activity of CTLs induced with WT1367 against B-LCL cell expressing WT1 was determined using the method as described above. […]

[4] = test system: human cells; conditions: in vitro, HLA-A*2402, Non-patent Document 12; cited from earlier work
[5] = test system: human peripheral blood mononuclear cells having HLA-A*0201; conditions: human PBMCs having HLA-A*0201 stimulated with peptide; Non-patent Document 11; cited from earlier work

SDQLKRHQR [WT1367]
cytotoxic activity (specific lysis) of CTLs induced with the peptide [1]: damage specifically BLCL-Ps
cytotoxic activity (specific lysis) of CTLs induced with the peptide [2]: have a cytotoxic activity against the cell expressing a WT1 gene exogenously
cytotoxic activity (specific lysis) of CTLs induced with the peptide [3]: damage only the cell which is HLA-A*3303-positive and expresses WT1

CMTWNQMNL (listed as Homo sapiens) [WT1235]
induction of WT1-specific CTLs [4]: WT1-specific CTLs (TAK-1) are induced

FSRSDQLKR [WT1364]
cytotoxic activity (specific lysis) of CTLs induced with the peptide [1]: damage specifically BLCL-Ps
cytotoxic activity (specific lysis) of CTLs induced with the peptide [2]: have a cytotoxic activity against the cell expressing a WT1 gene exogenously

SLGEQQYSV (listed as Homo sapiens) [WH187 peptide]
induction of WT1-specific CTLs [5]: WT1-specific CTLs are induced

LSHLQMHSR [WT1337]
cytotoxic activity (specific lysis) of CTLs induced with the peptide [1]: damage specifically BLCL-Ps

TSEKPFSCR [WT1409]
cytotoxic activity (specific lysis) of CTLs induced with the peptide [1]: damage specifically BLCL-Ps
cytotoxic activity (specific lysis) of CTLs induced with the peptide [2]: have a cytotoxic activity against the cell expressing a WT1 gene exogenously
